The target in one assay is Factor XIa (Homo sapiens (Human), UniProt P03951). Kind of assay: Factor XIa inhibition assay (FLINT) utilizing a fluorophore-quencher pair peptide substrate. The assay is classed as biochemical. The settings on record: 30 min preincubation, kinetic reads over 30 min, 5Fam-KLTRAETV-K5Tamra substrate 15 μM; read-out: FXIa Kin Inh IC50. The method in brief: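 FXIa ([…]) preincubated 30 min with compound (11-point 3-fold dilution, top 100 nM, 2% DMSO), then 15 μM quenched FXI Arg146-based peptide added; Tris pH 7.5, CaCl2, BSA, CHAPS. Fluorescence 485/520 nm read kinetically every 5 min over 30 min at RT; IC50 by 4-parameter fit.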

The target of another assay is human plasma kallikrein (Homo sapiens (Human), UniProt P03952). Kind of assay: Kallikrein inhibition assay (FLINT) utilizing a quenched AMC peptide substrate. The settings on record: 30 min preincubation, kinetic reads over 30 min, Z-Gly-Pro-Arg-AMC substrate 50 μM; read-out: Kallikrein Kin Inh IC50. The assay is classed as biochemical. Put shortly:
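Enzyme (2 nM final) pre-incubated 30 min at room temperature with compound (11-point, 3-fold, top 1 μM, 2% DMSO), then 50 μM Z-Gly-Pro-Arg-AMC added in Tris pH 7.5 buffer. Kinetic fluorescence 340/440 nm every 5 min over 30 min; IC50 from 4-parameter logistic fit.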

Sequence of human plasma kallikrein (P03952 391-638): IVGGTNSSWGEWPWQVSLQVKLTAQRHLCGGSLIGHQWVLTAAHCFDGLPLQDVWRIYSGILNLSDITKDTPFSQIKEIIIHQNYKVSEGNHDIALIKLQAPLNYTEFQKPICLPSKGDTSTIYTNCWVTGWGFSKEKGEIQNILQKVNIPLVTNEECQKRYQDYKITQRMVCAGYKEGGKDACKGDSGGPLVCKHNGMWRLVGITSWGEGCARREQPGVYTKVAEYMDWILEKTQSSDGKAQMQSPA
Sequence of human plasma kallikrein (P03952 20-390 partner): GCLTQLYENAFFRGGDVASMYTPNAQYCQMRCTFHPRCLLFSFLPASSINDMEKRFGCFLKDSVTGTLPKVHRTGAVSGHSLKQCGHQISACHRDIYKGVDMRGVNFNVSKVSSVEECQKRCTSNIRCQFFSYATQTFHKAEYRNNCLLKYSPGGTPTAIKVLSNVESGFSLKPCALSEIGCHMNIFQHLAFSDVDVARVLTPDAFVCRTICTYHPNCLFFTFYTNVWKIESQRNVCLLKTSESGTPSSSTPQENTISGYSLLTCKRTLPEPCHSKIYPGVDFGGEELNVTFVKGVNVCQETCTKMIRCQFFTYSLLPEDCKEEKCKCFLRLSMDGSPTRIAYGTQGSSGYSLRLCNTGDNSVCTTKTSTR
Sequence of Factor XIa (P03951 388-625): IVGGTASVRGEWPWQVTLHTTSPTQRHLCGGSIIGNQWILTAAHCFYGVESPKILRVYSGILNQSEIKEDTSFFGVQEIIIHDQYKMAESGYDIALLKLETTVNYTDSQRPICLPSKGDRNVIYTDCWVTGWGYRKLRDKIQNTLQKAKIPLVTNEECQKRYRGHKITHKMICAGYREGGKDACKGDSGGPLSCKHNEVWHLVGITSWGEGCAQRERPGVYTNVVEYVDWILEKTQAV
Sequence of Factor XIa (P03951 19-387 partner): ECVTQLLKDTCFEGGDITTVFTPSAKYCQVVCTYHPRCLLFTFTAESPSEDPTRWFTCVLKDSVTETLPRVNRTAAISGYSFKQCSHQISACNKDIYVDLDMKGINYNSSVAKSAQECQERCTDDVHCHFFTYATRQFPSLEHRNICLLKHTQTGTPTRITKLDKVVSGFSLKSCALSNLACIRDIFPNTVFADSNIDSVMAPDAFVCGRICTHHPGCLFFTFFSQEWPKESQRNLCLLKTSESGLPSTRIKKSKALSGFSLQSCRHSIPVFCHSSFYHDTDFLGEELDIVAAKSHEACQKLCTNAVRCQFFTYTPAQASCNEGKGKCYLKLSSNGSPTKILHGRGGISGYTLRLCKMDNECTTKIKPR

As for `O=C(O)c1nccc(-c2cnc([C@@H]3CC[C@@H]4CC(c5c(-n6cc(C(F)(F)F)nn6)ccc(Cl)c5F)=CC(=O)N43)[nH]2)c1F` [Example 58, 4-(2-((3S,8aR)-7-(3-chloro-2-fluoro-6-(4-(trifluoromethyl)-1H-1,2,3-triazol-1-yl)phenyl)-5-oxo-1,2,3,5,8,8a-hexahydroindolizin-3-yl)-1H-imidazol-5-yl)-3-fluoropicolinic acid], the IC50 at Factor XIa was 0.7 nM; on human plasma kallikrein, 49.2 nM.
For `O=C1C=C(c2c(-n3cnnn3)ccc(Cl)c2F)C[C@H]2CC[C@@H](c3ncc(-c4ccnc(COP(=O)(O)O)c4F)[nH]3)N12` [Example 61, (4-(2-((3S,8aR)-7-(3-chloro-2-fluoro-6-(1H-tetrazol-1-yl)phenyl)-5-oxo-1,2,3,5,8,8a-hexahydroindolizin-3-yl)-1H-imidazol-5-yl)-3-fluoropyridin-2-yl)methyl dihydrogen phosphate], in that order: 0.5 nM and 44.4 nM.
For `O=C1C=C(c2c(-n3cnnn3)ccc(Cl)c2F)C[C@H]2CC[C@@H](c3ncc(-c4cc[n+]([O-])c(CO)c4F)[nH]3)N12` [Example 65, 4-(2-((3S,8aR)-7-(3-chloro-2-fluoro-6-(1H-tetrazol-1-yl)phenyl)-5-oxo-1,2,3,5,8,8a-hexahydroindolizin-3-yl)-1H-imidazol-5-yl)-3-fluoro-2-(hydroxymethyl)pyridine 1-oxide] the same measures were 45.4 nM and 420 nM.
Turning to `O=C1C=C(c2c(-n3cc(C(F)(F)F)nn3)ccc(Cl)c2F)C[C@H]2CC[C@@H](c3ncc(-c4ccnc(CO)c4F)[nH]3)N12` [Example 67, (3S,8aR)-7-(3-chloro-2-fluoro-6-(4-(trifluoromethyl)-1H-1,2,3-triazol-1-yl)phenyl)-3-(5-(3-fluoro-2-(hydroxymethyl)pyridin-4-yl)-1H-imidazol-2-yl)-2,3,8,8a-tetrahydroindolizin-5(1H)-one], the IC50 came out at 10.7 nM at Factor XIa and 85.7 nM on human plasma kallikrein.
For `Nc1ccnn1-c1nccc(-c2c[nH]c([C@@H]3CC[C@@H]4CC(c5c(-n6cnnn6)ccc(Cl)c5F)=CC(=O)N43)n2)c1F` [Example 68], in that order: 30 nM and 58 nM.
For `Nc1ccc(-c2[nH]c([C@@H]3CC[C@@H]4CC(c5cc(Cl)ccc5-n5cnnn5)=CC(=O)N43)nc2F)c(F)n1` [Example 69, (3S,8aR)-3-(5-(6-amino-2-fluoropyridin-3-yl)-4-fluoro-1H-imidazol-2-yl)-7-(5-chloro-2-(1H-tetrazol-1-yl)phenyl)-2,3,8,8a-tetrahydroindolizin-5(1H)-one] the same measures were 0.3 nM and 3.8 nM.
For `CC(C)[C@H](N)C(=O)OCc1nccc(-c2cnc([C@@H]3CC[C@@H]4CC(c5c(-n6cnnn6)ccc(Cl)c5F)=CC(=O)N43)[nH]2)c1F` [Example 75, [4-[2-[(3S,8aR)-7-[3-chloro-2-fluoro-6-(tetrazol-1-yl)phenyl]-5-oxo-2,3,8,8a-tetrahydro-1H-indolizin-3-yl]-1H-imidazol-5-yl]-3-fluoro-2-pyridyl]methyl (2S)-2-amino-3-methyl-butanoate], in that order: 4.3 nM and 38.3 nM.
As for `CC(C)(CO)Nc1nccc(-c2cnc([C@@H]3CC[C@@H]4CC(c5cc(Cl)ccc5-n5cnnn5)=CC(=O)N43)[nH]2)c1F` [Example 79, (3S,8aR)-7-[5-chloro-2-(tetrazol-1-yl)phenyl]-3-[5-[3-fluoro-2-[(2-hydroxy-1,1-dimethyl-ethyl)amino]-4-pyridyl]-1H-imidazol-2-yl]-2,3,8,8a-tetrahydro-1H-indolizin-5-one], the IC50 on Factor XIa is 7.5 nM; at human plasma kallikrein it was 12.2 nM.
For `O=C1C=C(c2cc(Cl)ccc2-n2cnnn2)C[C@H]2CC[C@@H](c3nc(F)c(-c4ccnc(CO)c4F)[nH]3)N12` [Example 80, (3S,8aR)-7-[5-chloro-2-(tetrazol-1-yl)phenyl]-3-[4-fluoro-5-[3-fluoro-2-(hydroxymethyl)-4-pyridyl]-1H-imidazol-2-yl]-2,3,8,8a-tetrahydro-1H-indolizin-5-one] the same measures were 1.3 nM and 11.2 nM.
Consider `O=C1CCc2cc(-c3[nH]c([C@@H]4CC[C@@H]5CC(c6cc(Cl)ccc6-n6cc(C(F)(F)F)nn6)=CC(=O)N54)nc3F)ccc2N1` [Example 81, 6-[2-[(3S,8aR)-7-[5-chloro-2-[4-(trifluoromethyl)triazol-1-yl]phenyl]-5-oxo-2,3,8,8a-tetrahydro-1H-indolizin-3-yl]-4-fluoro-1H-imidazol-5-yl]-3,4-dihydro-1H-quinolin-2-one], for which the IC50 at Factor XIa amounted to 0.7 nM; on human plasma kallikrein, 1.8 nM.
For `O=C1C=C(c2cc(Cl)ccc2-n2cnnn2)C[C@H]2CC[C@@H](c3ncc(-c4ccc(NC56CC(C5)C6)nc4F)[nH]3)N12` [Example 83], in that order: 17.4 nM and 57.5 nM.
For `CC(C)(O)CNc1nccc(-c2[nH]c([C@@H]3CC[C@@H]4CC(c5cc(Cl)ccc5-n5cnnn5)=CC(=O)N43)nc2F)c1F` [Example 84, (3S,8aR)-7-[5-chloro-2-(tetrazol-1-yl)phenyl]-3-[4-fluoro-5-[3-fluoro-2-[(2-hydroxy-2-methyl-propyl)amino]-4-pyridyl]-1H-imidazol-2-yl]-2,3,8,8a-tetrahydro-1H-indolizin-5-one] the same measures were 0.3 nM and 3 nM.
For `O=C1C=C(c2c(-n3cnnn3)ccc(Cl)c2F)C[C@H]2CC[C@@H](c3ncc(-c4ccnc(-n5ccnn5)c4)[nH]3)N12` [Example 85, (3S,8aR)-7-[3-chloro-2-fluoro-6-(tetrazol-1-yl)phenyl]-3-[5-[2-(triazol-1-yl)-4-pyridyl]-1H-imidazol-2-yl]-2,3,8,8a-tetrahydro-1H-indolizin-5-one], in that order: 11.1 nM and 8.9 nM.
As to `O=C1C=C(c2c(-n3cnnn3)ccc(Cl)c2F)C[C@H]2CC[C@@H](c3ncc(-c4ccnc(-n5nccn5)c4)[nH]3)N12` [Example 86, (3S,8aR)-7-[3-chloro-2-fluoro-6-(tetrazol-1-yl)phenyl]-3-[5-[2-(triazol-2-yl)-4-pyridyl]-1H-imidazol-2-yl]-2,3,8,8a-tetrahydro-1H-indolizin-5-one], the IC50 on Factor XIa was 4.6 nM; on human plasma kallikrein, 3.2 nM.
For `O=C1C=C(c2c(-n3cnnn3)ccc(Cl)c2F)C[C@H]2CC[C@@H](c3nc(F)c(-c4ccnc(-n5nccn5)c4)[nH]3)N12` [Example 87, (3S,8aR)-7-[3-chloro-2-fluoro-6-(tetrazol-1-yl)phenyl]-3-[4-fluoro-5-[2-(triazol-2-yl)-4-pyridyl]-1H-imidazol-2-yl]-2,3,8,8a-tetrahydro-1H-indolizin-5-one] the same measures were 0.9 nM and 1.6 nM.
For `O=C1C=C(c2c(-n3cnnn3)ccc(Cl)c2F)C[C@H]2CC[C@@H](c3nc(F)c(-c4ccnc(-n5cccn5)c4)[nH]3)N12` [Example 88, (3S,8aR)-7-[3-chloro-2-fluoro-6-(tetrazol-1-yl)phenyl]-3-[4 fluoro-5-(2-pyrazol-1-yl-4-pyridyl)-1H-imidazol-2-yl]-2,3,8,8a-tetrahydro-1H-indolizin-5-one], the IC50 on Factor XIa turned out to be 1.5 nM; on human plasma kallikrein it was 1.9 nM.
For `CC(C)(CO)Nc1nccc(-c2cnc([C@@H]3CC[C@@H]4CC(c5c(-n6cnnn6)ccc(Cl)c5F)=CC(=O)N43)[nH]2)c1F` [Example 89, (3S,8aR)-7-[3-chloro-2-fluoro-6-(tetrazol-1-yl)phenyl]-3-[5-[3-fluoro-2-[(2-hydroxy-1,1-dimethyl-ethyl)amino]-4-pyridyl]-1H-imidazol-2-yl]-2,3,8,8a-tetrahydro-1H-indolizin-5-one], in that order: 5.8 nM and 7.4 nM.
For `O=C1C=C(c2c(-n3cnnn3)ccc(Cl)c2F)C[C@H]2CC[C@@H](c3ncc(-c4ccnc(-n5cccn5)c4)[nH]3)N12` [Example 93, (3S,8aR)-3-(5-(2-(1H-pyrazol-1-yl)pyridin-4-yl)-1H-imidazol-2-yl)-7-(3-chloro-2-fluoro-6-(1H-tetrazol-1-yl)phenyl)-2,3,8,8a-tetrahydroindolizin-5(1H)-one] the same measures were 10.3 nM and 3.1 nM.
For `O=C(c1nccc(-c2cnc([C@@H]3CC[C@@H]4CC(c5c(-n6cnnn6)ccc(Cl)c5F)=CC(=O)N43)[nH]2)c1F)N1CC(F)(F)C1` [Example 94, (3S,8aR)-7-(3-Chloro-2-fluoro-6-(1H-tetrazol-1-yl)phenyl)-3-(5-(2-(3,3-difluoroazetidine-1-carbonyl)-3-fluoropyridin-4-yl)-1H-imidazol-2-yl)-2,3,8,8a-tetrahydroindolizin-5(1H)-one], in that order: 12.3 nM and 122 nM.
Take `CC1(O)CCc2c(-c3cnc(C4CCC5CC(c6c(-n7cnnn7)ccc(Cl)c6F)=CC(=O)N54)[nH]3)ccnc21` (stereo not drawn) [Example 95, 7-(3-Chloro-2-fluoro-6-(1H-tetrazol-1-yl)phenyl)-3-(5-(7-hydroxy-7-methyl-6,7-dihydro-5H-cyclopenta[b]pyridin-4-yl)-1H-imidazol-2-yl)-2,3,8,8a-tetrahydroindolizin-5(1H)-one]: the figures for the half-inhibitory concentration (IC50) on Factor XIa and at human plasma kallikrein were 3.5 nM and 23.9 nM, respectively.
For `O=C1C=C(c2cc(Cl)ccc2-n2cnnn2)C[C@H]2CC[C@@H](c3ncc(-c4ccnc(NC56CC(C5)C6)c4F)[nH]3)N12` [Example 96, (3S,8aR)-3-(5-(2-(Bicyclo[1.1.1]pentan-1-ylamino)-3-fluoropyridin-4-yl)-1H-imidazol-2-yl)-7-(5-chloro-2-(1H-tetrazol-1-yl)phenyl)-2,3,8,8a-tetrahydroindolizin-5(1H)-one], in that order: 5.4 nM and 2.6 nM.

The record behind these values is patent US20230295157A1, “3-(1H-IMIDAZOL-2-YL)-2,3,8,8A-TETRAHYDROINDOLIZIN-5(1H)-ONE DERIVATIVES USEFUL AS FACTOR XIA INHIBITORS” (JANSSEN PHARMACEUTICA NV, priority 2020, published 2023).
